Laboratory results published in patent US20260345798A1, “COMPOUNDS AND METHODS OF USE THEREOF” (Virginia Commonwealth University, priority 2023, published 2026).
Residues, ends and D or L forms follow the SMILES beside them.

What was measured:
[1] = test system: B16 melanoma cells; assay: Boyden chamber invasion assay, B16 cells; type: cell-based; conditions: B16 mouse melanoma cells
Method: FIG. 13A is a series of photomicrographs of B16 melanoma cells treated with IVMT-Rx-3 at varying concentrations, as well as a histogram showing quantification of the average percentage (of control) of invaded cells. Invasion was assayed using a Boyden chamber. *: Statistical significance (p<0.05).
Invasive phenotype was measured using a Boyden Chamber Assay as described previously (6,8,18). Briefly, 25,000 cells were plated on the upper chamber of the trans well in FBS free media and allowed to invade the Matrigel layer towards the bottom chamber supplemented with complete media. Twenty-four hr. after plating, the invaded cells were fixed and counted under a bright field microscope.

[2] = test system: B16 lung metastases; assay: B16 lung metastasis model in C57BL/6 mice; type: in vivo, mouse; conditions: 30 mg/kg I.P., 3× per week, 6 injections
Method: FIG. 6A is a series of images of B16 lung metastases in C57BL/6 mice treated with DMSO vehicle, PDZ1i, or IVMT-Rx-3 (intraperitoneal injection of 30 mg/kg, 3×/week, 6 injections total). 1×10^5 B16 cells were injected intravenously in C57BL/6 mice (n=7, per group) prior to treatment.
FIG. 6B is a series of histograms showing the number of nodules/lung, T cell populations (CD8^+IFN-γ^+) and myeloid-derived suppressor cells (MDSCs) in the lungs of the treatment groups described in FIG. 6A, as measured by flow cytometry. *: Statistical significance (p<0.05);**: Statistical significance (p<0.01);***: Statistical significance (p<0.001). ****: Statistical significance (p<0.0001).
All animal experiments were performed according to guidelines established by VCU IACUC. Immune competent mice (6-week-old male C57BL/6) were used in this study for determining the anti-metastatic efficiency of IVMT-Rx-3. Mice were purchased from Jackson Laboratories and after one-week in barrier facilities, experiments were performed. To establish lung metastases, murine B16 (1×10^5 cells/0.1 ml PBS) were injected via tail vein in C57BL/6 mice (18). Test chemical (IVMT-Rx-3) was administrated at 30 mg/kg body weight three times a week I.P. for the first two weeks (six injections, C57BL/6 study). DMSO was used as control. Anti-PD-L1 antibody and control antibodies for therapeutic injections were purchased from Bio X Cell (West Lebanon, NH, USA).
1×10^5 B16 cells were injected intravenously in C57BL/6 mice and treated with IVMT-Rx-3 (intraperitoneal injection 30 mg/kg, 3× in a week, 6 injections in total). 100 μg of Anti-PD-L1 antibody was injected through the I/P (intraperitoneal) route (3 times a week, over a 2-week period). A set of 20 animals were first injected with B16 cells (1×10^5 cells/mouse) and randomly divided into four groups (n=5) for survival studies. As stated in the above-mentioned lung metastasis protocol, mice received 6 doses of control vehicle or IVMT-Rx-3 either alone or in combination with anti-PD-L1 over the first two weeks. […]

[3] = test system: IL-6, IL-10, IL-16; assay: IL-6, IL-10, IL-16 mRNA by semiquantitative RT-PCR, murine melanoma cells; type: cell-based, mouse; conditions: murine melanoma cells (B16)
Method: FIG. 14 is a series of histograms showing the IL-6, IL-10, and IL-16 mRNA fold change in RNA lysates prepared from A-375, C8161.9, and B16 cells treated with IVMT-Rx-3 at varying concentrations as indicated.
Total cellular RNA was extracted using an RNAeasy kit (Qiagen, Germany) as described previously (8,9). All Taqman probes used in this study were obtained from Applied Biosystems (Applied Biosystems, Foster City, CA). Real time PCR was performed using an ABI ViiA7 fast real-time PCR system (Applied Biosystems, Foster City, CA).

[4] = test system: IGFBP-2; assay: IGFBP-2 in blood plasma of B16-injected mice; type: in vivo, mouse; conditions: 30 mg/kg I.P., 6 injections
Text: FIG. 6C is a histogram showing the IGFBP-2 expression measured in blood plasma from animals (n=7) in the treatment groups described in FIG. 6A. ****: Statistical significance (p<0.0001).

[5] = test system: MMP-2 and MMP-9; assay: Gelatin zymography of conditioned media; type: cell-based, human; conditions: A-375 and C8161.9 cells, 10, 25, 50 μM, 24 hrs
Method: FIG. 5B is images of zymography assays of MMP-2 and MMP-9 activity in A-375, C8161.9 cells treated with IVMT-Rx-3 at varying doses, and histograms showing the calculated intensity from the zymography assays. *: Statistical significance (p<0.05).
Tumor cells were treated with different doses of IVMT-Rx-3 (10, 25, and 50 μM) for 24 hrs. The cells were then cultured in serum-free medium overnight. Conditioned media (serum free media) collected on the next day was quantified and equal amounts of protein were run in a 7.5% SDS-polyacrylamide gel electrophoresis containing 1.5 mg/mL gelatin. The gels were washed vigorously with shaking 3×in 2.5% Triton X-100 solution to remove the SDS. The gel was then placed in the developing buffer [50 mM/L Tris-HCl (pH 7.5), 0.05% NaN3, 5 mM/L CaCl2), and 1 μM/L ZnCl2] 37 °C overnight. Lastly, the gels were stained with Amido black in 10% acetic acid followed by de-staining for 1 hr. MMP activities as observed through gelatinolysis were measured as clear zones of white strips against a blue background (21).

[6] = Toxicity in pre-clinical animal models; conditions: in vivo
[7] = test system: NF-κB; assay: NF-κB (p65) transcription factor assay; type: cell-based, human; conditions: A-375 and C8161.9 melanoma cells
Method: FIG. 4C is a histogram showing the NF-κB transcriptional activity of A-375 melanoma cells treated with the indicated doses of IVMT-Rx-3. *: Statistical significance (p<0.05).
FIG. 4D is a histogram showing the NF-κB transcriptional activity of C8161.9 melanoma cells treated with the indicated doses of IVMT-Rx-3. *: Statistical significance (p<0.05).
NF-κB transcription factor assay kits were obtained from Cayman Chemical (Ann Arbor, MI, USA) (Cat #10007889). Nuclear extracts were prepared from cells using the Nuclear and Cytoplasmic Extraction kit (Thermo Fisher Scientific, USA). The samples were then added to pretreated wells for 1 hr. after which they were washed with a wash buffer provided in the kit. The NF-κB antibody was then added with a 1 hr. incubation and after washing the antibody, HRP-conjugated secondary antibody was added for 1 hr. Lastly, a developing solution followed by a stop solution was added. The wells were analyzed with a microplate reader for absorbance at 450 nm.

Cc1cc(NC(=O)c2nc3[nH]c4c(c(=O)n3n2)CCC4)c(C)cc1NC(=O)CCOCCC(=O)N[C@H](C(=O)N[C@@H](CC(N)=O)C(=O)N[C@@H](CCC(=O)O)C(=O)N[C@@H](Cc1ccc(O)cc1)C(=O)N[C@@H](Cc1ccc(O)cc1)C(=O)N[C@H](C(=O)O)C(C)C)[C@@H](C)O [IVMT-Rx-3] (HELM PEPTIDE1{[Cc1cc(NC(=O)c2nc3[nH]c4c(c(=O)n3n2)CCC4)c(C)cc1NC(=O)CCOCCC(=O)[*:2]].T.N.E.Y.Y.V}$$$$V2.0)
invasion of B16 cells [1]: inhibition of invasion
efficacy against lung metastases compared with PDZ1i [2]: significantly higher compared with PDZ1i
lung metastasis (combination experiment) ([2]; single agent): markedly reduced lung metastasis
number of lung nodules ([2]; vs vehicle): significantly reduced the number of lung nodules
IL-6, IL-10, IL-16 expression [3]: Down-regulation
IGFBP-2 levels in blood plasma [4]: down regulation
MMP activity (zymography) [5]: lower activity in treated cells
toxicity in pre-clinical animal models [6]: without provoking toxicity
transcriptional activity of NF-κB [7]: suppressed the transcriptional activity of NF-κB in a dose-dependent manner
